The record followed here is patent US11452717B2, “Small molecule activators of nicotinamide phosphoribosyltransferase (NAMPT) and uses thereof” (Sanford Burnham Prebys Medical Discovery Institute, priority 2017, dated 2022).

Where only a bound is given, the exact number is not on record here.

Sequence of NAMPT enzyme (P43490 whole entry, species assumed): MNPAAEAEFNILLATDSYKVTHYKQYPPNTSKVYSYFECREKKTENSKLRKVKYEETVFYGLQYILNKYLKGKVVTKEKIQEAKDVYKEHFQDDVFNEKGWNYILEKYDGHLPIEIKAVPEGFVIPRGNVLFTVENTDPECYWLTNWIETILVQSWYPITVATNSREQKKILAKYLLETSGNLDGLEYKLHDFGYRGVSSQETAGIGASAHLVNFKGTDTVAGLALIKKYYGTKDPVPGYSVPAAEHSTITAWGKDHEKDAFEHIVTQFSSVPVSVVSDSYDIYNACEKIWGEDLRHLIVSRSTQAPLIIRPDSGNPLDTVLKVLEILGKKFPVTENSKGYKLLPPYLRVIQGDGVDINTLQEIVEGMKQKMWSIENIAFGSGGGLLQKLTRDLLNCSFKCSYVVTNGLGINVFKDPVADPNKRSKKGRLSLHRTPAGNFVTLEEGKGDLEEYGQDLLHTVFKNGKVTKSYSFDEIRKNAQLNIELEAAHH

The first experiment has as its target NAMPT enzyme (Homo sapiens (Human), UniProt P43490). Description: Enzyme Assay and NMN Detection (NAMPT reaction, fluorescence detection of NMN). In kind it is biochemical. The conditions noted are these: Table B-1; NAMPT activation, NMN formation. Summed up: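 Reaction in 50 mM HEPES pH 7.5, 5 mM MgCl2, 0.1% Prionex, 0.005% Tween 20, 1 mM TCEP at room temperature, with 16 nM NAMPT, 120 uM ATP, 5 uM nicotinamide, 6.25 uM PRPP, 0.04 U/ml pyrophosphatase for 2 h. Stopped with acetophenone/KOH then formic acid; NMN quantified by fluorescence (ex380/em460) against calibration curve.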
The molecule `O=C(NCc1cn[nH]c1)Nc1ccc(S(=O)(=O)NCc2ccccc2Cl)cc1` [N-(2-Chloro-benzyl)-4-[3-(1H-pyrazol-4-ylmethyl)-ureido]-benzenesulfonamide] registered an EC50 of less than 100 nM.

In turn, `COc1ccccc1CNS(=O)(=O)c1ccc(NC(=O)NCc2cn[nH]c2)cc1` [N-(2-Methoxy-benzyl)-4-[3-(1H-pyrazol-4-ylmethyl)-ureido]-benzenesulfonamide] displayed an EC50 of less than 100 nM.

The experiment is the same for the next values; noted with them: Table B-2; NAMPT activation, NMN formation.
`COC(=O)c1ccc(NC(=O)c2ccc(NC(=O)NCc3ccncc3)cc2)cc1` [Methyl 4-(4-(3-(pyridin-4-ylmethyl)ureido)benzamido)benzoate] displayed an EC50 of 100 to 2000 nM.

In turn, `O=C(NCc1ccncc1)Nc1ccc(S(=O)(=O)N(Cc2ccccc2)Cc2ccccc2)cc1` [N,N-Dibenzyl-4-(3-pyridin-4-ylmethyl-ureido)-benzenesulfonamide] gave an EC50 greater than 20000 nM.

Molecule `CN(C)S(=O)(=O)c1ccc(NC(=O)NCc2ccncc2)cc1` [N,N-Dimethyl-4-(3-pyridin-4-ylmethy-ureido)-benzenesulfonamide] showed an EC50 of 2000 to 5000 nM.

Take `CCN(CC)C(=O)c1ccc(NC(=O)NCc2ccncc2)cc1` [N,N-diethyl-4-(3-(pyridin-4-ylmethyl)ureido)benzamide]: the EC50 is greater than 20000 nM.

For the molecule `CN(C)C(=O)c1ccc(NC(=O)NCc2ccncc2)cc1` [N,N-dimethyl-4-(3-(pyridin-4-ylmethyl)ureido)benzamide], the EC50 was greater than 20000 nM.

As for `CN(C)S(=O)(=O)c1ccc(CNS(=O)(=O)c2ccc(NC(=O)NCc3ccncc3)cc2)cc1` [N,N-dimethyl-4-((4-(3-(pyridin-4-ylmethyl)ureido)phenylsulfonamido)methyl)benzenesulfonamide], the EC50 lay in the range of 100 to 2000 nM.

With `CC(NS(=O)(=O)c1ccc(NC(=O)NCc2ccncc2)cc1)C1CCC1` (stereo not shown) [N-(1-Cyclobutyl-ethyl)-4-(3-pyridin-4-ylmethyl-ureido)-benzenesulfonamide], the EC50 was in the range of 100 to 2000 nM.

For the molecule `CCN1CCCC1CNS(=O)(=O)c1ccc(NC(=O)NCc2ccncc2)cc1` (stereo not shown) [N-(1-Ethyl-pyrrolidin-2-ylmethyl)-4-(3-pyridin-4-ylmethyl-ureido)-benzenesulfonamide], the EC50 was in the range of 100 to 2000 nM.

Molecule `CN1CCC(NS(=O)(=O)c2ccc(NC(=O)NCc3ccncc3)cc2)C1` (stereo not shown) [N-(1-Methyl-pyrrolidin-3-yl)-4-(3-pyridin-4-ylmethyl-ureido)-benzenesulfonamide] gave an EC50 of 2000 to 5000 nM.

Molecule `CC(NS(=O)(=O)c1ccc(NC(=O)NCc2ccncc2)cc1)c1ccccc1` (stereo not shown) [N-(1-phenylethyl)-4-(3-(pyridin-4-ylmethyl)ureido)benzenesulfonamide] yielded an EC50 of 100 to 2000 nM.

In turn, `O=C(NCc1ccncc1)Nc1ccc(C(=O)Nc2ccc3c(c2)OCCO3)cc1` [N-(2,3-dihydrobenzo[b][1,4]dioxin-6-yl)-4-(3-(pyridin-4-ylmethyl)ureido)benzamide] gave an EC50 of 100 to 2000 nM.

`CN(C)CCNC(=O)c1ccc(NC(=O)NCc2ccncc2)cc1` [N-(2-(dimethylamino)ethyl)-4-(3-(pyridin-4-ylmethyl)ureido)benzamide] showed an EC50 of 5000 to 20000 nM.

Take `CN(C)c1ccccc1NC(=O)c1ccc(NC(=O)NCc2ccncc2)cc1` [N-(2-(dimethylamino)phenyl)-4-(3-(pyridin-4-ylmethyl)ureido)benzamide]: the EC50 is 100 to 2000 nM.

Consider `O=C(NCc1ccncc1)Nc1ccc(C(=O)NCCN2CCCCC2)cc1` [N-(2-(piperidin-1-yl)ethyl)-4-(3-(pyridin-4-ylmethyl)ureido)benzamide], for which the EC50 was in the range of 2000 to 5000 nM.

The molecule `O=C(NCc1ccncc1)Nc1ccc(S(=O)(=O)NCc2ccccc2Cl)cc1` [N-(2-Chloro-benzyl)-4-(3-pyridin-4-ylmethyl-ureido)-benzenesulfonamide] displayed an EC50 of less than 100 nM.

Molecule `CN(Cc1ccccc1Cl)S(=O)(=O)c1ccc(NC(=O)NCc2ccncc2)cc1` [N-(2-Chloro-benzyl)-N-methyl-4-(3-pyridin-4-ylmethyl-ureido)-benzenesulfonamide] displayed a concentration giving a half-maximal response (EC50) of less than 100 nM.

For the molecule `N#Cc1ccccc1CNS(=O)(=O)c1ccc(NC(=O)NCc2ccncc2)cc1` [N-(2-Cyano-benzyl)-4-(3-pyridin-4-ylmethyl-ureido)-benzenesulfonamide], the EC50 lay in the range of 100 to 2000 nM.

As for `CN(C)c1ccccc1CNS(=O)(=O)c1ccc(NC(=O)NCc2ccncc2)cc1` [N-(2-Dimethylamino-benzyl)-4-(3-pyridin-4-ylmethyl-ureido)-benzenesulfonamide], the EC50 is less than 100 nM.

The molecule `CN(C)CCNS(=O)(=O)c1ccc(NC(=O)NCc2ccncc2)cc1` [N-(2-Dimethylamino-ethyl)-4-(3-pyridin-4-ylmethyl-ureido)-benzenesulfonamide] came in with an EC50 of 100 to 2000 nM.

Take `CN(Cc1ccccc1F)S(=O)(=O)c1ccc(NC(=O)NCc2ccncc2)cc1` [N-(2-Fluoro-benzyl)-N-methyl-4-(3-pyridin-4-ylmethyl-ureido)-benzenesulfonamide]: the EC50 is less than 100 nM.

Molecule `O=C(NCc1ccncc1)Nc1ccc(S(=O)(=O)NCCO)cc1` [N-(2-Hydroxy-ethyl)-4-(3-pyridin-4-ylmethyl-ureido)-benzenesulfonamide] showed a 50% effective concentration (EC50) of 2000 to 5000 nM.

`CN(CCO)S(=O)(=O)c1ccc(NC(=O)NCc2ccncc2)cc1` [N-(2-Hydroxy-ethyl)-N-methyl-4-(3-pyridin-4-ylmethyl-ureido)-benzenesulfonamide] registered an EC50 of 100 to 2000 nM.

In turn, `COc1ccccc1CN(C)S(=O)(=O)c1ccc(NC(=O)NCc2ccncc2)cc1` [N-(2-Methoxy-benzyl)-N-methyl-4-(3-pyridin-4-ylmethyl-ureido)-benzenesulfonamide] had an EC50 of less than 100 nM.

`COCCNS(=O)(=O)c1ccc(NC(=O)NCc2ccncc2)cc1` [N-(2-Methoxy-ethyl)-4-(3-pyridin-4-ylmethyl-ureido)-benzenesulfonamide] came in with an EC50 of 100 to 2000 nM.

`COc1ccccc1NS(=O)(=O)c1ccc(NC(=O)NCc2ccncc2)cc1` [N-(2-Methoxy-phenyl)-4-(3-pyridin-4-ylmethyl-ureido)-benzenesulfonamide]: the EC50 lay within 100 to 2000 nM.

`Cc1ccccc1CNS(=O)(=O)c1ccc(NC(=O)NCc2ccncc2)cc1` [N-(2-Methyl-benzyl)-4-(3-pyridin-4-ylmethyl-ureido)-benzenesulfonamide] came in with an EC50 of 100 to 2000 nM.

The molecule `O=C(NCc1ccncc1)Nc1ccc(S(=O)(=O)NCCN2CCOCC2)cc1` [N-(2-Morpholin-4-yl-ethyl)-4-(3-pyridin-4-ylmethyl-ureido)-benzenesulfonamide] returned an EC50 of 100 to 2000 nM.

On to `O=C(NCc1ccncc1)Nc1ccc(S(=O)(=O)NCCN2CCCCC2)cc1` [N-(2-Piperidin-1-yl-ethyl)-4-(3-pyridin-4-ylmethyl-ureido)-benzenesulfonamide], for which the EC50 lay in the range of 2000 to 5000 nM.

The same experiment, now with this note: Table B-3; NAMPT activation, NMN formation.
In turn, `CCOC(=O)c1ccc(NC(=O)NCc2cncnc2)cc1` [Ethyl 4-(3-(pyrimidin-5-ylmethyl)ureido)benzoate] came in with an EC50 greater than 20000 nM.

As to `CCOC(=O)c1ccc(NC(=O)NCc2ccnc3ccccc23)cc1` [Ethyl 4-(3-(quinolin-4-ylmethyl)ureido)benzoate], the EC50 is greater than 20000 nM.

Take `CCOC(=O)c1ccc(NC(=O)NCc2ccccc2)cc1` [Ethyl 4-(3-benzylureido)benzoate]: the 50% effective concentration (EC50) was greater than 20000 nM.

Turning to `COC(=O)c1ccc(N(C)C(=O)NCc2ccncc2)cc1` [Methyl 4-(1-methyl-3-(pyridin-4-ylmethyl)ureido)benzoate], the EC50 is greater than 20000 nM.

For orientation: EC50 means the concentration at which the effect is half-maximal. Read a high EC50 as lower potency in that assay.
